{"source": "patent US20210290651A1", "about": "“METHODS OF TREATING VIRAL INFECTIONS USING INHIBITORS OF NUCLEOTIDE SYNTHESIS PATHWAYS” (priority 2020, published 2021)", "key": {"Influenza A H3N2": {"tested_on": "Influenza A H3N2", "details": "Influenza A H3N2, MDCK (canine kidney); cited from earlier work"}, "Yellow Fever": {"tested_on": "Yellow Fever", "details": "Vero (monkey kidney); cited from earlier work"}, "HRV1A strain 2060": {"tested_on": "HRV1A strain 2060", "assay": "Rhinovirus antiviral assay, inhibition of virus-induced cell killing (XTT) in H1-HeLa cells", "assay_type": "cell-based", "details": "Enterovirus"}, "[1]": {"tested_on": "Influenza A H1N1(California)", "details": "MDCK (canine kidney); cited from earlier work"}, "in vitro": {"assay": "in vitro", "details": "monkey, CC50, Vero E6"}, "[2]": {"tested_on": "HuH7 (human hepatocellular carcinoma)", "details": "cited from earlier work"}, "in vivo": {"assay": "in vivo", "details": "rodents"}, "Vero76 (monkey kidney)": {"tested_on": "Vero76 (monkey kidney)", "details": "Vero76, Zika row; cited from earlier work"}, "CYP": {"tested_on": "CYP", "assay": "CYP inhibition"}, "[3]": {"tested_on": "acute myeloid leukemia (AML)", "assay": "Clinical response of patients with AML to brequinar-containing composition", "assay_type": "in vivo, human"}, "MDCK (canine kidney)": {"tested_on": "MDCK (canine kidney)", "details": "H1N1(BIRFLU) row; cited from earlier work"}, "[4]": {"details": "in vivo"}, "Dengue": {"tested_on": "Dengue", "details": "A549 (human alveolar basal epithelial); cited from earlier work"}, "solid tumor malignancies": {"tested_on": "solid tumor malignancies", "details": "5-day period followed by 3-week gap, or once per week for three weeks followed by 1-week gap; cited from earlier work"}, "FMDV (A/GD/MM/2013)": {"tested_on": "FMDV (A/GD/MM/2013)", "details": "cited from earlier work"}, "[5]": {"tested_on": "A549 (human alveolar basal epithelial)", "details": "A549, H1N1(BIRFLU) row; cited from earlier work"}, "[6]": {"assay": "Cytotoxicity in H1-HeLa cells (XTT)", "details": "human, H1-HeLa cells (CRL-1958)"}, "SARS-CoV-2": {"tested_on": "SARS-CoV-2", "assay": "microbe, parasite or virus in culture", "assay_type": "cell-based"}, "[7]": {"tested_on": "A549 (human alveolar basal epithelial)", "details": "A549, Dengue row; cited from earlier work"}, "[8]": {"tested_on": "A549 or HEp-2 (human epithelial)", "details": "A549 or HEp-2, RSV row; cited from earlier work"}, "[9]": {"assay": "Adverse events in subjects receiving brequinar intravenously once a week", "details": "IV once a week, 209 subjects"}, "Influenza A H1N1(BIRFLU) [10]": {"tested_on": "Influenza A H1N1(BIRFLU)", "details": "MDCK (canine kidney); cited from earlier work"}, "Vero (monkey kidney)": {"tested_on": "Vero (monkey kidney)", "details": "cited from earlier work"}, "Zika": {"tested_on": "Zika", "details": "Vero76 (monkey kidney); cited from earlier work"}, "Influenza B (Brisbane)": {"tested_on": "Influenza B (Brisbane)", "details": "MDCK (canine kidney); cited from earlier work"}, "AML": {"tested_on": "AML", "details": "cited from earlier work"}, "[11]": {"tested_on": "TZM-bl(human cervical tumor)", "details": "HIV1 row; cited from earlier work"}, "CMV": {"tested_on": "CMV", "details": "Primary Human Fibroblasts; cited from earlier work"}, "VSV": {"tested_on": "VSV", "details": "HuH7 (human hepatocellular carcinoma); cited from earlier work"}, "Influenza A H1N1(BIRFLU) [12]": {"tested_on": "Influenza A H1N1(BIRFLU)", "details": "A549 (human alveolar basal epithelial); cited from earlier work"}, "[13]": {"details": "in vivo", "remark": "listed apart in the source"}, "DHODH [14]": {"tested_on": "DHODH"}, "FMDV (O/MY98/BY/2010)": {"tested_on": "FMDV (O/MY98/BY/2010)", "details": "cited from earlier work"}, "[15]": {"tested_on": "Respiratory Syncytial (RSV)", "details": "A549 or HEp-2 (human epithelial); cited from earlier work"}, "Ebola": {"tested_on": "Ebola", "details": "HeLa (human cervical tumor); cited from earlier work"}, "RNA virus": {"tested_on": "RNA virus", "assay": "Daily brequinar for five days in subject infected with an RNA virus (Example 19)", "assay_type": "in vivo", "details": "single daily dose for five consecutive days, first peak in brequinar level", "method": "The mechanism by which administration of a DHODH inhibitor according to a daily dosing regimen inhibits viral replication is illustrated below. […] Throughout the course of the dosing regimen, levels of intracellular pyrimidines, such as uridine, and viral replication are measured."}, "[16]": {"tested_on": "Influenza A H1N1 (New Caledonia)", "details": "16HBE (human bronchial epithelial); cited from earlier work"}, "[17]": {"tested_on": "Primary Human Fibroblasts", "details": "CMV row; cited from earlier work"}, "HIV1": {"tested_on": "HIV1", "details": "HIV1, TZM-bl(human cervical tumor); cited from earlier work"}, "IBRS-2 (swine kidney)": {"tested_on": "IBRS-2 (swine kidney)", "details": "cited from earlier work"}, "DHODH [18]": {"biological_target": "DHODH (Homo sapiens, UniProt Q02127)", "sequence (Q02127 whole entry)": "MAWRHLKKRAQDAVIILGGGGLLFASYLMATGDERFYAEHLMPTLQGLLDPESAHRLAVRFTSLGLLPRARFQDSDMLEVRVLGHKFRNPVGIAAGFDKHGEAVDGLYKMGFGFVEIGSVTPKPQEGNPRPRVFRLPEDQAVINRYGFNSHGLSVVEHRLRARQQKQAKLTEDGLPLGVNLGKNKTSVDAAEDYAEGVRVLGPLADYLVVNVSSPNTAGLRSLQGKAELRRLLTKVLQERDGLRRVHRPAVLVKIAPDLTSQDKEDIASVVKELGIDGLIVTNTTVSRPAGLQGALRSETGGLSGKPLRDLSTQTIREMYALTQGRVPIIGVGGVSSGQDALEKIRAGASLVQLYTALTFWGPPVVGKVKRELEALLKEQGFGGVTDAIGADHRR", "details": "concentrations >1 μM"}, "[19]": {"tested_on": "16HBE (human bronchial epithelial)", "details": "H1N1 (New Caledonia) row; cited from earlier work"}}, "note": "Read-outs that look alike come from different tables or passages of the source."}
{"smiles": "Cc1c(-c2ccc(-c3ccccc3F)cc2)nc2ccc(F)cc2c1C(=O)O", "note": "[brequinar, 6-fluoro-2-(2′-fluoro-1,1′ biphenyl-4-yl)-3-methyl-4-quinoline carboxylic acid]", "values": [{"measurement": "EC50", "setting": "Influenza A H3N2", "value": 620, "unit": "nM"}, {"measurement": "EC50", "setting": "Yellow Fever", "value": 20, "unit": "nM"}, {"measurement": "EC50", "setting": "HRV1A strain 2060", "value": 50, "unit": "nM"}, {"measurement": "EC50", "setting": "[1]", "value": 780, "unit": "nM"}, {"measurement": "CC50 at 3 days", "setting": "in vitro", "value": "> 50000", "unit": "nM"}, {"measurement": "CC50", "setting": "[2]", "value": "> 25000", "unit": "nM"}, {"measurement": "Kp", "setting": "in vivo", "value": "~0.5"}, {"measurement": "CC50", "setting": "Vero76 (monkey kidney)", "value": "> 50000", "unit": "nM"}, {"measurement": "CYP inhibition", "setting": "CYP", "value": "Does not inhibit CYP"}, {"measurement": "response", "setting": "[3]; first patient (Example 12): reduction in bone marrow blast count, improved extramedullary hematopoiesis, more differentiated peripheral blasts", "value": "positive response"}, {"measurement": "response", "setting": "[3]; patient of Example 14: trend towards differentiation of peripheral blasts", "value": "positive response"}, {"measurement": "response", "setting": "[3]; second patient (Example 13): lowering of peripheral blasts, increase in absolute neutrophil count, greater differentiation", "value": "positive response"}, {"measurement": "CC50", "setting": "MDCK (canine kidney)", "value": "> 50000", "unit": "nM"}, {"measurement": "cumulative effect of repeated doses", "setting": "[4]", "value": "No cumulative effective of repeated doses"}, {"measurement": "EC50", "setting": "Dengue", "value": 78, "unit": "nM"}, {"measurement": "efficacy in solid tumor malignancies", "setting": "solid tumor malignancies", "value": "ineffective"}, {"measurement": "EC50", "setting": "FMDV (A/GD/MM/2013)", "value": "< 3000", "unit": "nM"}, {"measurement": "CC50", "setting": "[5]", "value": "> 50000", "unit": "nM"}, {"measurement": "CC50 at 3 days", "setting": "[6]", "value": 300, "unit": "nM"}, {"measurement": "E(Max)", "setting": "SARS-CoV-2", "value": 88.2}, {"measurement": "lowering of the EC50 of remdesivir by brequinar", "setting": "SARS-CoV-2", "value": "> 40", "unit": "fold"}, {"measurement": "EC90", "setting": "SARS-CoV-2; Severe acute respiratory syndrome coronavirus 2, Vero C1008", "value": 345, "unit": "nM"}, {"measurement": "Emax", "setting": "SARS-CoV-2; Severe acute respiratory syndrome coronavirus 2, Vero C1008, Vero E6, read-out: maximal inhibitory activity (Emax) compared to the no infection control", "value": 88.2, "unit": "%"}, {"measurement": "CC50", "setting": "[7]", "value": "> 5000", "unit": "nM"}, {"measurement": "CC50", "setting": "[8]", "value": "> 10000", "unit": "nM"}, {"measurement": "Infection: No. of Patients", "setting": "[9]", "value": 7}, {"measurement": "Infection: No. of Patients Experiencing the AE, Max Grade 1", "setting": "[9]", "value": 4}, {"measurement": "Infection: No. of Patients Experiencing the AE, Max Grade 2", "setting": "[9]", "value": 3}, {"measurement": "Infection: No. of Patients Experiencing the AE, Max Grade 3", "setting": "[9]", "value": 0}, {"measurement": "Infection: No. of Patients Experiencing the AE, Max Grade 4", "setting": "[9]", "value": 0}, {"measurement": "Infection: Percent", "setting": "[9]", "value": 3.3, "unit": "%"}, {"measurement": "EC50", "setting": "Influenza A H1N1(BIRFLU) [10]", "value": 580, "unit": "nM"}, {"measurement": "CC50", "setting": "Vero (monkey kidney)", "value": "> 50000", "unit": "nM"}, {"measurement": "EC50", "setting": "Zika", "value": 80, "unit": "nM"}, {"measurement": "EC50", "setting": "Influenza B (Brisbane)", "value": 250, "unit": "nM"}, {"measurement": "toxicity", "setting": "AML; daily administration of high doses", "value": "weight loss, anemia, and thrombocytopenia"}, {"measurement": "leukemia-initiating cell activity", "setting": "AML; only when elevated plasma levels are maintained for extended periods", "value": "decreases leukemia-initiating cell activity"}, {"measurement": "CC50", "setting": "[11]", "value": "> 30000", "unit": "nM"}, {"measurement": "EC50", "setting": "CMV", "value": 800, "unit": "nM"}, {"measurement": "EC50", "setting": "VSV", "value": 14, "unit": "nM"}, {"measurement": "EC50", "setting": "Influenza A H1N1(BIRFLU) [12]", "value": 140, "unit": "nM"}, {"measurement": "equivalence of oral and IV formulations", "setting": "[13]", "value": "oral and IV formulations are equivalent"}, {"measurement": "DHO plasma level threshold achieved", "setting": "DHODH [14]; human, in vivo", "value": 133, "unit": "ng/mL"}, {"measurement": "time to achieve DHO plasma level threshold", "setting": "DHODH [14]; patient with AML of Example 14", "value": "less than 2 hours"}, {"measurement": "EC50", "setting": "FMDV (O/MY98/BY/2010)", "value": 30000, "unit": "nM"}, {"measurement": "EC50", "setting": "[15]", "value": 53, "unit": "nM"}, {"measurement": "EC50", "setting": "Ebola", "value": 100, "unit": "nM"}, {"measurement": "intracellular pyrimidine levels", "setting": "RNA virus", "value": "dramatic decrease in the intracellular pyrimidine pool"}, {"measurement": "EC50", "setting": "[16]", "value": 140, "unit": "nM"}, {"measurement": "CC50", "setting": "[17]", "value": "> 50000", "unit": "nM"}, {"measurement": "EC50", "setting": "HIV1", "value": 40, "unit": "nM"}, {"measurement": "CC50", "setting": "IBRS-2 (swine kidney)", "value": 100000, "unit": "nM"}, {"measurement": "DHODH inhibition", "setting": "DHODH [18]", "value": "almost completely inhibited"}, {"measurement": "CC50", "setting": "[19]", "value": "> 50000", "unit": "nM"}]}
